Experimental data: ChEMBL document CHEMBL5096191 (J Med Chem, 2021)

What was measured:
Format in all cases: functional, cell-based
[1] = system: Cannabinoid receptor 2 (Homo sapiens), P34972 [S285L]; experiment: Partial agonist activity at CBR2 S2857.39L mutant (unknown origin) expressed in HEK293T assessed as increase in ERK1/2 phosphorylation incubated for 7 mins in presence of cannabidiol by AlphaScreenSureFire method relative to control; conditions: filed as partial agonist
[2] = target: T1, Cannabinoid receptor 2 (Homo sapiens, UniProt P34972); experiment: Partial agonist activity at wild type CB2 receptor (unknown origin) expressed in HEK293T assessed as increase in ERK1/2 phosphorylation incubated for 7 mins by AlphaScreenSureFire method relative to control; conditions: filed as partial agonist
T1 sequence (P34972 whole entry): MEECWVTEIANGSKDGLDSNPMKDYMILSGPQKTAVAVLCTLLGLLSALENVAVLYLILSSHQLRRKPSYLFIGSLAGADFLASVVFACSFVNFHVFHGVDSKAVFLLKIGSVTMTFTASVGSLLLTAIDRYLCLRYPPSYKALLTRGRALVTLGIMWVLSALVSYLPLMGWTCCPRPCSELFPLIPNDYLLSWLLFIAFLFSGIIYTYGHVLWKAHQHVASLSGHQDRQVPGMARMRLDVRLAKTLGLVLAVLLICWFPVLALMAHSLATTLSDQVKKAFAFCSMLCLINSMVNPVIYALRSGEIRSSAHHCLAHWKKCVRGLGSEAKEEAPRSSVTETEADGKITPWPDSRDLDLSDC

[3] = target: T1, Cannabinoid receptor 2; experiment: Positive allosteric modulation of JWH-133-induced agonist activity at wild type CB2 receptor (unknown origin) stably expressed in HEK293T cells assessed as inhibition of forskolin-stimulated cAMP levels preincubated for 15 mins followed by forskolin addition incubated for 15 mins by HTRF assay relative to control; conditions: filed as positive allosteric modulator, time 30.0 min
[4] = target: T2, Cannabinoid receptor 2 (Homo sapiens, UniProt P34972, A282M); experiment: Partial agonist activity at CBR2 A2827.36M mutant (unknown origin) expressed in HEK293T assessed as increase in ERK1/2 phosphorylation incubated for 7 mins by AlphaScreenSureFire method
T2 sequence (P34972 whole entry A282M): as the sequence (P34972 whole entry) above, with A282M counted along it

[5] = system: Cannabinoid receptor 2 (Homo sapiens), P34972 [V113M]; experiment: Partial agonist activity at CBR2 V1133.32M mutant (unknown origin) expressed in HEK293T assessed as increase in picometer shifts of reflected light wavelengths by DMR assay relative to control; conditions: filed as partial agonist
Cannabinoid receptor 2 (Homo sapiens), P34972 [V113M], sequence (P34972 whole entry V113M): as the sequence (P34972 whole entry) above, with V113M counted along it

[6] = system: Cannabinoid receptor 2 (Homo sapiens), P34972 [V36M]; experiment: Partial agonist activity at CBR2 V361.35M mutant (unknown origin) expressed in HEK293T assessed as increase in ERK1/2 phosphorylation incubated for 7 mins by AlphaScreenSureFire method relative to control; conditions: filed as partial agonist
Cannabinoid receptor 2 (Homo sapiens), P34972 [V36M], sequence (P34972 whole entry V36M): as the sequence (P34972 whole entry) above, with V36M counted along it

[7] = system: Cannabinoid receptor 2 (Homo sapiens), P34972 [V36M]; experiment: Partial agonist activity at CBR2 V361.35M mutant (unknown origin) expressed in HEK293T assessed as increase in picometer shifts of reflected light wavelengths by DMR assay relative to control; conditions: filed as partial agonist
[8] = target: T3, Cannabinoid receptor 2 (Homo sapiens, UniProt P34972, V113M); experiment: Partial agonist activity at CBR2 V1133.32M mutant (unknown origin) expressed in HEK293T assessed as increase in picometer shifts of reflected light wavelengths in presence of cannabidiol by DMR assay
T3 sequence (P34972 whole entry V113M): as the sequence (P34972 whole entry) above, with V113M counted along it

[9] = target: T1, Cannabinoid receptor 2; experiment: Partial agonist activity at wild type CB2 receptor (unknown origin) expressed in HEK293T assessed as increase in picometer shifts of reflected light wavelengths by DMR assay
[10] = target: T3, Cannabinoid receptor 2; experiment: Partial agonist activity at CBR2 V1133.32M mutant (unknown origin) expressed in HEK293T assessed as increase in picometer shifts of reflected light wavelengths by DMR assay
[11] = target: T3, Cannabinoid receptor 2; experiment: Partial agonist activity at CBR2 V1133.32M mutant (unknown origin) stably expressed in HEK293T assessed as decrease in forskolin induced cAMP level preincubated for 15 mins followed by forskolin addition incubated for 15 mins in presence of cannabidiol by HTRF assay
[12] = target: T4, Cannabinoid receptor 2 (Homo sapiens, UniProt P34972, S285L); experiment: Partial agonist activity at CBR2 S2857.39L mutant (unknown origin) expressed in HEK293T assessed as increase in ERK1/2 phosphorylation incubated for 7 mins by AlphaScreenSureFire method
T4 sequence (P34972 whole entry S285L): as the sequence (P34972 whole entry) above, with S285L counted along it

[13] = target: T3, Cannabinoid receptor 2; experiment: Partial agonist activity at CBR2 V1133.32M mutant (unknown origin) expressed in HEK293T assessed as increase in ERK1/2 phosphorylation incubated for 7 mins in presence of cannabidiol by AlphaScreenSureFire method
[14] = system: Cannabinoid receptor 2 (Homo sapiens), P34972 [V113M]; experiment: Partial agonist activity at CBR2 V1133.32M mutant (unknown origin) stably expressed in HEK293T assessed as decrease in forskolin induced cAMP level preincubated for 15 mins followed by forskolin addition incubated for 15 mins by HTRF assay relative to control; conditions: filed as partial agonist, time 30.0 min
[15] = system: Cannabinoid receptor 2 (Homo sapiens), P34972 [V36M]; experiment: Partial agonist activity at CBR2 V361.35M mutant (unknown origin) expressed in HEK293T assessed as increase in ERK1/2 phosphorylation incubated for 7 mins in presence of cannabidiol by AlphaScreenSureFire method relative to control; conditions: filed as partial agonist
[16] = target: T1, Cannabinoid receptor 2; experiment: Partial agonist activity at wild type CB2 receptor (unknown origin) stably expressed in HEK293T assessed as decrease in forskolin induced cAMP level preincubated for 15 mins followed by forskolin addition incubated for 15 mins in presence of cannabidiol by HTRF assay relative to control; conditions: filed as partial agonist, time 30.0 min
[17] = target: T2, Cannabinoid receptor 2; experiment: Partial agonist activity at CBR2 A2827.36M mutant (unknown origin) stably expressed in HEK293T assessed as decrease in forskolin induced cAMP level preincubated for 15 mins followed by forskolin addition incubated for 15 mins in presence of cannabidiol by HTRF assay
[18] = target: T4, Cannabinoid receptor 2; experiment: Partial agonist activity at CBR2 S2857.39L mutant (unknown origin) stably expressed in HEK293T assessed as decrease in forskolin induced cAMP level preincubated for 15 mins followed by forskolin addition incubated for 15 mins by HTRF assay
[19] = system: Cannabinoid receptor 2 (Homo sapiens), P34972 [S285L]; experiment: Partial agonist activity at CBR2 S2857.39L mutant (unknown origin) stably expressed in HEK293T assessed as decrease in forskolin induced cAMP level preincubated for 15 mins followed by forskolin addition incubated for 15 mins by HTRF assay relative to control; conditions: filed as partial agonist, time 30.0 min
[20] = system: Cannabinoid receptor 2 (Homo sapiens), P34972 [A282M]; experiment: Partial agonist activity at CBR2 A2827.36M mutant (unknown origin) expressed in HEK293T assessed as increase in picometer shifts of reflected light wavelengths in presence of cannabidiol by DMR assay relative to control; conditions: filed as partial agonist
Cannabinoid receptor 2 (Homo sapiens), P34972 [A282M], sequence (P34972 whole entry A282M): as the sequence (P34972 whole entry) above, with A282M counted along it

[21] = system: Cannabinoid receptor 2 (Homo sapiens), P34972 [S285L]; experiment: Partial agonist activity at CBR2 S2857.39L mutant (unknown origin) expressed in HEK293T assessed as increase in ERK1/2 phosphorylation incubated for 7 mins by AlphaScreenSureFire method relative to control; conditions: filed as partial agonist
[22] = system: Cannabinoid receptor 2 (Homo sapiens), P34972 [A282M]; experiment: Partial agonist activity at CBR2 A2827.36M mutant (unknown origin) expressed in HEK293T assessed as increase in ERK1/2 phosphorylation incubated for 7 mins in presence of cannabidiol by AlphaScreenSureFire method relative to control; conditions: filed as partial agonist
[23] = target: T1, Cannabinoid receptor 2; experiment: Partial agonist activity at wild type CB2 receptor (unknown origin) expressed in HEK293T assessed as increase in picometer shifts of reflected light wavelengths in presence of cannabidiol by DMR assay
[24] = target: T1, Cannabinoid receptor 2; experiment: Partial agonist activity at wild type CB2 receptor (unknown origin) expressed in HEK293T assessed as increase in picometer shifts of reflected light wavelengths by DMR assay relative to control; conditions: filed as partial agonist
[25] = target: T1, Cannabinoid receptor 2; experiment: Partial agonist activity at wild type CB2 receptor (unknown origin) expressed in HEK293T assessed as increase in ERK1/2 phosphorylation incubated for 7 mins by AlphaScreenSureFire method
[26] = target: Cannabinoid receptor 2 (Homo sapiens, UniProt P34972, V36M); experiment: Partial agonist activity at CBR2 V361.35M mutant (unknown origin) expressed in HEK293T assessed as increase in picometer shifts of reflected light wavelengths in presence of cannabidiol by DMR assay
Cannabinoid receptor 2 (Homo sapiens, UniProt P34972, V36M), sequence (P34972 whole entry V36M): as the sequence (P34972 whole entry) above, with V36M counted along it

[27] = system: Cannabinoid receptor 2 (Homo sapiens), P34972 [S285L]; experiment: Partial agonist activity at CBR2 S2857.39L mutant (unknown origin) stably expressed in HEK293T assessed as decrease in forskolin induced cAMP level preincubated for 15 mins followed by forskolin addition incubated for 15 mins in presence of cannabidiol by HTRF assay relative to control; conditions: filed as partial agonist, time 30.0 min

Cannabinoid receptor 2 (Homo sapiens), P34972 [S285L], sequence (P34972 whole entry S285L): as the sequence (P34972 whole entry) above, with S285L counted along it

CCCC(C)(C)c1cc(O)c2c(c1)OC(C)(C)[C@@H]1CC=C(C)C[C@@H]21
Emax [1]: 291% | Emax [2]: 322% | Emax [3]: 56% | EC50 [4]: 20 nM | Emax [5]: 79.9% | Emax [6]: 363% | Emax [7]: 193% | EC50 [8]: 398 nM | EC50 [9]: 631 nM | EC50 [10]: 501 nM | EC50 [11]: 25.1 nM | EC50 [12]: 39.8 nM | EC50 [13]: 39.8 nM | Emax [14]: 72.5% | Emax [15]: 353% | Emax [16]: 57.8% | EC50 [17]: 7.94 nM | EC50 [18]: 39.8 nM | Emax [19]: 49.3% | Emax [20]: 189% | Emax [21]: 374% | Emax [22]: 352% | EC50 [23]: 631 nM | Emax [24]: 183% | EC50 [25]: 7.94 nM | EC50 [26]: 631 nM | Emax [27]: 57.4%
